Results reported in publication PMC5564600 (Oncotarget, 2017).
Like-named read-outs stand apart in the source and are kept apart here.

Assays:
Assay in all cases: biochemical
Type in all cases: binding
panel of 442 kinases [1] = biological target: T1, panel of 442 kinases (Homo sapiens, UniProt Q9UM73); details: ALK; for remaining activity at 1 µM: read-out: % of control at 1 µM
T1 construct: purchased Ambit Biosciences (scanMAXX KINOMEscan)

panel of 442 kinases [2] = biological target: T2, panel of 442 kinases (Homo sapiens, UniProt O43283); details: kinase LZK; for remaining activity at 1 µM: read-out: % of control at 1 µM
T2 construct: purchased Ambit Biosciences (scanMAXX KINOMEscan)
T2 sequence (O43283 1-966): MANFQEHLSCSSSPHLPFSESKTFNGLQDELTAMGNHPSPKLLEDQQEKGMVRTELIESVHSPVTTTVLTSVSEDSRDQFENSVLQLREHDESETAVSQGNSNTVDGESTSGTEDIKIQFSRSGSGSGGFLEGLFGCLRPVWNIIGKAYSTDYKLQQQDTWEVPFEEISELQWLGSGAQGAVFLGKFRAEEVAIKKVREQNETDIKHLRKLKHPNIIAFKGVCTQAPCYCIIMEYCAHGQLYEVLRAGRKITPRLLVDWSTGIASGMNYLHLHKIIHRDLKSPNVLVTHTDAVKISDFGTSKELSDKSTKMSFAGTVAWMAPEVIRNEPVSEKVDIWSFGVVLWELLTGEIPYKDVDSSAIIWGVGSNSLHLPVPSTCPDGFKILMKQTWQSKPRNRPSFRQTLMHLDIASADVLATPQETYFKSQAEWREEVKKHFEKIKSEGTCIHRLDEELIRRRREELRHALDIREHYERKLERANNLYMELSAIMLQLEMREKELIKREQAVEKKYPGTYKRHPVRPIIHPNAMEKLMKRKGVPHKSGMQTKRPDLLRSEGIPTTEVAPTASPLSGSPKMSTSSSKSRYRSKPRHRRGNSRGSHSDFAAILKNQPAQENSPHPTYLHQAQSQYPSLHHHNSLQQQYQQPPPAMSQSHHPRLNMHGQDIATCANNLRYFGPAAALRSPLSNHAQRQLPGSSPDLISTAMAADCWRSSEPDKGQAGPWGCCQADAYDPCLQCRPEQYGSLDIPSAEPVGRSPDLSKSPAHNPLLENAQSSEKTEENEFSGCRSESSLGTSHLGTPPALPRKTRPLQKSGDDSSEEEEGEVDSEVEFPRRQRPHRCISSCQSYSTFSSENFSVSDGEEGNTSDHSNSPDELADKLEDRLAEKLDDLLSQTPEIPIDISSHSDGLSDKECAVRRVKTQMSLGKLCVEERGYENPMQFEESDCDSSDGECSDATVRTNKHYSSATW

panel of 442 kinases [3] = biological target: T3, panel of 442 kinases (Homo sapiens, UniProt P36888, D835H); details: FLT3(D835H); for remaining activity at 1 µM: read-out: % of control at 1 µM
T3 construct: purchased Ambit Biosciences (scanMAXX KINOMEscan)
T3 sequence (P36888 27-993 D835H): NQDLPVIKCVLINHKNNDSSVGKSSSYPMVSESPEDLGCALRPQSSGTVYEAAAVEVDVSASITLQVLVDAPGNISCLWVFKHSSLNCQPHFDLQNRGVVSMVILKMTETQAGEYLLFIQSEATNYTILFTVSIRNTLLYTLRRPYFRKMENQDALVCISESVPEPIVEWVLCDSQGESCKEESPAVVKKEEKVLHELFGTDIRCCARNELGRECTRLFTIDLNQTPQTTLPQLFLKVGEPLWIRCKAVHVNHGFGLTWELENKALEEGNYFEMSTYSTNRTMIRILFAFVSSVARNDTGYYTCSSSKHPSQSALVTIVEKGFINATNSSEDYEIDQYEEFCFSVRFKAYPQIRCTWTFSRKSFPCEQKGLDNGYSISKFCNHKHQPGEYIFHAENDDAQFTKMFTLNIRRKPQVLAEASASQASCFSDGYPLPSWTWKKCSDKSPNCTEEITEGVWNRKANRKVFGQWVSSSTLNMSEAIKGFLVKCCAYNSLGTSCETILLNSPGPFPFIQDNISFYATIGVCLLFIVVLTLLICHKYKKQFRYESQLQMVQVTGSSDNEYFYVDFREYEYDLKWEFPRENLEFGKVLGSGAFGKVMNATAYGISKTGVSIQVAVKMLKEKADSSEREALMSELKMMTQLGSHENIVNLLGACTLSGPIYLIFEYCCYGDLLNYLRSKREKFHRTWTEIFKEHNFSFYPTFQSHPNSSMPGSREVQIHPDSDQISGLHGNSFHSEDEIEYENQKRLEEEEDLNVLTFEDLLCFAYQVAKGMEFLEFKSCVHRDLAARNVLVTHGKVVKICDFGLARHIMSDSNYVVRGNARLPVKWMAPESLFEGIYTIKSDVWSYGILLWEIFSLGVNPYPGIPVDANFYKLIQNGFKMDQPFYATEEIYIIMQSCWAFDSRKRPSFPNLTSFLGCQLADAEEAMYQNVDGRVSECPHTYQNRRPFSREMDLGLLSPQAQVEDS

panel of 442 kinases [4] = biological target: T4, panel of 442 kinases (Homo sapiens, UniProt P00519, F317L); details: for remaining activity at 1 µM: read-out: % of control at 1 µM; for remaining activity at 10 µM: read-out: % of control at 10 µM
T4 construct: purchased Ambit Biosciences (scanMAXX KINOMEscan)

panel of 442 kinases [5] = biological target: T5, panel of 442 kinases (Homo sapiens, UniProt Q15418)
T5 construct: purchased Ambit Biosciences (scanMAXX KINOMEscan)

panel of 442 kinases [6] = biological target: T6, panel of 442 kinases (Homo sapiens, UniProt Q15746); details: kinase MYLK; for remaining activity at 1 µM: read-out: % of control at 1 µM
T6 construct: purchased Ambit Biosciences (scanMAXX KINOMEscan)

panel of 442 kinases [7] = biological target: T7, panel of 442 kinases (Homo sapiens, UniProt O15264); details: kinase p38-delta; for remaining activity at 1 µM: read-out: % of control at 1 µM
T7 construct: purchased Ambit Biosciences (scanMAXX KINOMEscan)
T7 sequence (O15264 1-365): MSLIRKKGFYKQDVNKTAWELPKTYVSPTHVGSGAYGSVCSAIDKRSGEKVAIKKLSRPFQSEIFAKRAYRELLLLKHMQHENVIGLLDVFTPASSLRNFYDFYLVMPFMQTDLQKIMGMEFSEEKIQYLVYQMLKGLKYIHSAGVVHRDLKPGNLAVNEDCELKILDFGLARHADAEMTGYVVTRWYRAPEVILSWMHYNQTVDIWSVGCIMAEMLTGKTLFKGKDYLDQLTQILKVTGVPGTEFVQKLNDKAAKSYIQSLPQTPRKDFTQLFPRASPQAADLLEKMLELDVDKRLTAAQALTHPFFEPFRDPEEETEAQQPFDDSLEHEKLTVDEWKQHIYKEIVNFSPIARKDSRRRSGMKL

panel of 442 kinases [8] = biological target: T8, panel of 442 kinases (Homo sapiens, UniProt P12931); details: kinase SRC; for remaining activity at 1 µM: read-out: SRC (% of control at 1 µM)
T8 construct: purchased Ambit Biosciences (scanMAXX KINOMEscan)

[9] = 10 µM, read-out: % of control at 10 µM
[10] = kinase RSK1(Kin.Dom.1-N-terminal), read-out: RSK1(Kin.Dom.1-N-terminal) (% of control at 1 µM)
[11] = kinase RSK1(Kin.Dom.2-C-terminal), read-out: RSK1(Kin.Dom.2-C-terminal) (% of control at 1 µM)

T6 sequence (Q15746 whole entry): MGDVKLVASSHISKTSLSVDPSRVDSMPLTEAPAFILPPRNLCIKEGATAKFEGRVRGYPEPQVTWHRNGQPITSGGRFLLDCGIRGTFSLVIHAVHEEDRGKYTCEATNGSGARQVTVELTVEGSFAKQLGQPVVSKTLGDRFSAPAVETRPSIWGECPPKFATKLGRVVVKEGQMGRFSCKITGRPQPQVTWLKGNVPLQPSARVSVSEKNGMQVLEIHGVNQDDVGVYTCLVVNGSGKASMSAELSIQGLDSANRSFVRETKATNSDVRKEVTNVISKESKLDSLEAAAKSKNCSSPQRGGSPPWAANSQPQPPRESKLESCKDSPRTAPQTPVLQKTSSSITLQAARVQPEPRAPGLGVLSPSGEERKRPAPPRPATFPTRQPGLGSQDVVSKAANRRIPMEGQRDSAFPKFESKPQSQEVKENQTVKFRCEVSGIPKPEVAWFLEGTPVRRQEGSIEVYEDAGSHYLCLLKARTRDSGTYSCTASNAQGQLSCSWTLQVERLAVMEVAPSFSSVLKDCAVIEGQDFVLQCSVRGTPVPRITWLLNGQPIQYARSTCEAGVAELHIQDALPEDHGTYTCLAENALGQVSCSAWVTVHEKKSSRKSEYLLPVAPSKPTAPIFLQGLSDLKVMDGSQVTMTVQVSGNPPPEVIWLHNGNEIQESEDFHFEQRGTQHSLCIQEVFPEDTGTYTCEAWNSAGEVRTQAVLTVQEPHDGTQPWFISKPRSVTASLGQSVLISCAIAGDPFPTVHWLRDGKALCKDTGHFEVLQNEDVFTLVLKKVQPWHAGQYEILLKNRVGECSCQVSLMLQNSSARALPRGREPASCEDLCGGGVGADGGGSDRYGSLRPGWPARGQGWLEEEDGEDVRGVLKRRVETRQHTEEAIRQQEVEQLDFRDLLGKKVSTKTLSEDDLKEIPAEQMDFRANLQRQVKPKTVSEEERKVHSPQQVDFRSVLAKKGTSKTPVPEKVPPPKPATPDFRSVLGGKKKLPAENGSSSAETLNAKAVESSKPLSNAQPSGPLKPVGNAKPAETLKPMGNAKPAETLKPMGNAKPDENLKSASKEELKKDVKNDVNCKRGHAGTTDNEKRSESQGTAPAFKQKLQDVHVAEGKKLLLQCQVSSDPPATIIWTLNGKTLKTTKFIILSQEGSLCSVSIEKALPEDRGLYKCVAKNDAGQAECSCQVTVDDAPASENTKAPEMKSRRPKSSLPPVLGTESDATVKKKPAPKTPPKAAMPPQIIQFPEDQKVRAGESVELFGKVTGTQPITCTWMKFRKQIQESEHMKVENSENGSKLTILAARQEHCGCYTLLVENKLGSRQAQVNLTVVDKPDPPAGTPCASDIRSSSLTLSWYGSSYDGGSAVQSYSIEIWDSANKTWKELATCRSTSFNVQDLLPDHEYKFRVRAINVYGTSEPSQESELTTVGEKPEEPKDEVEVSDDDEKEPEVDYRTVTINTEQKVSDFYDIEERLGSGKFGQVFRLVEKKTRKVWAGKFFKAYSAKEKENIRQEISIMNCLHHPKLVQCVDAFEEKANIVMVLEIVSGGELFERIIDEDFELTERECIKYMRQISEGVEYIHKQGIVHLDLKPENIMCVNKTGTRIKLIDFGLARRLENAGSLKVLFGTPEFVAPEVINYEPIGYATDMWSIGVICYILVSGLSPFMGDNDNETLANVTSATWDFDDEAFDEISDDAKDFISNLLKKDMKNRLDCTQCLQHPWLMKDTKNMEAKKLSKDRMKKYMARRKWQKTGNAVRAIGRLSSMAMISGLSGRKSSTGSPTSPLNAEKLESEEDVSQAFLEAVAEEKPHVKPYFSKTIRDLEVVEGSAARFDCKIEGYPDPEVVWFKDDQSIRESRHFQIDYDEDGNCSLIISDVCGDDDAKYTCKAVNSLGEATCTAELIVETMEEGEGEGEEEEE
T5 sequence (Q15418 whole entry): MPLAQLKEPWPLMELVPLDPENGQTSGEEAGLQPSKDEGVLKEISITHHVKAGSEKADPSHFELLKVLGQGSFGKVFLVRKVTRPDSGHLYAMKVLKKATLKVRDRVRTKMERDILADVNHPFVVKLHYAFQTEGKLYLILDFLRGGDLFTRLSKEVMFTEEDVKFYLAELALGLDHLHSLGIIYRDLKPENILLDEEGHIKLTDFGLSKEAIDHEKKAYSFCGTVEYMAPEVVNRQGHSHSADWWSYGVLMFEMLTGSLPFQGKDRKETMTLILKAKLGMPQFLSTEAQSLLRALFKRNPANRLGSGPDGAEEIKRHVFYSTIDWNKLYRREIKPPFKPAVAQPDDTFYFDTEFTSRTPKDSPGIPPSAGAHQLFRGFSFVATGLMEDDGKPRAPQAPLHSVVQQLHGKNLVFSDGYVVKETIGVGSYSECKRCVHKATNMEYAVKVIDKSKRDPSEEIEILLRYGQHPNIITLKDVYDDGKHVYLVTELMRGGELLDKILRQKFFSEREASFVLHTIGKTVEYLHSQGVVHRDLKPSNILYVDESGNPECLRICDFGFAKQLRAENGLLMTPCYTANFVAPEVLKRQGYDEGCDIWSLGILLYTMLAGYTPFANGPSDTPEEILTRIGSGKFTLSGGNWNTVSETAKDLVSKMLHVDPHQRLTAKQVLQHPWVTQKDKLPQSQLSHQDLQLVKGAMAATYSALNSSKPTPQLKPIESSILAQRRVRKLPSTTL
T4 sequence (P00519 whole entry F317L): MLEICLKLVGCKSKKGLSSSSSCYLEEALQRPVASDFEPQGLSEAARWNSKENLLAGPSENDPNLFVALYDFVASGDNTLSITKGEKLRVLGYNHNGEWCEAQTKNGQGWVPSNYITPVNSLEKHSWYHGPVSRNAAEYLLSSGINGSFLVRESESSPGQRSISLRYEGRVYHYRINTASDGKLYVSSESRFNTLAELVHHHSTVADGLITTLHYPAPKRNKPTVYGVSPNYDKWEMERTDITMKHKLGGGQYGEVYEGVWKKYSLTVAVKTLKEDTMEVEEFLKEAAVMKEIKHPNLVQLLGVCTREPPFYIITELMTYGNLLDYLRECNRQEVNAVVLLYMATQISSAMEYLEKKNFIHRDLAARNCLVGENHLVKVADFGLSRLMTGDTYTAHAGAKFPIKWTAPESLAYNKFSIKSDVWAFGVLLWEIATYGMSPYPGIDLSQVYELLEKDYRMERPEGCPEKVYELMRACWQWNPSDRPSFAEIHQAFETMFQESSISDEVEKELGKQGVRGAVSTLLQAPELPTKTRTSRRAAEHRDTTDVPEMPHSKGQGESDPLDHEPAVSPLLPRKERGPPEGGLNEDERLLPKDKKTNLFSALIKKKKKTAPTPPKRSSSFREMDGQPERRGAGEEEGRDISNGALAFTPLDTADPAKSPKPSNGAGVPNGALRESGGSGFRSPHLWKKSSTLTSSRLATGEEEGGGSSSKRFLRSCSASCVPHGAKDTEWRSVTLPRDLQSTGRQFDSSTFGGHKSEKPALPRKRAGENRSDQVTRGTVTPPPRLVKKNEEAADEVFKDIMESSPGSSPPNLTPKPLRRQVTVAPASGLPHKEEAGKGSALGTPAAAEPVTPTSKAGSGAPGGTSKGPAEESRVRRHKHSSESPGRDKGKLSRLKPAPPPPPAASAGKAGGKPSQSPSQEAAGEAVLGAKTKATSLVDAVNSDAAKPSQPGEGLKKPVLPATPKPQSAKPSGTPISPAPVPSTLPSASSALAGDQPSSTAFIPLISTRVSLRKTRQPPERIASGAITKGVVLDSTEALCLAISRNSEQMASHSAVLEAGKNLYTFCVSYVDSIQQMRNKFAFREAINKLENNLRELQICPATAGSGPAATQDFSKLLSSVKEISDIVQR
T8 sequence (P12931 whole entry): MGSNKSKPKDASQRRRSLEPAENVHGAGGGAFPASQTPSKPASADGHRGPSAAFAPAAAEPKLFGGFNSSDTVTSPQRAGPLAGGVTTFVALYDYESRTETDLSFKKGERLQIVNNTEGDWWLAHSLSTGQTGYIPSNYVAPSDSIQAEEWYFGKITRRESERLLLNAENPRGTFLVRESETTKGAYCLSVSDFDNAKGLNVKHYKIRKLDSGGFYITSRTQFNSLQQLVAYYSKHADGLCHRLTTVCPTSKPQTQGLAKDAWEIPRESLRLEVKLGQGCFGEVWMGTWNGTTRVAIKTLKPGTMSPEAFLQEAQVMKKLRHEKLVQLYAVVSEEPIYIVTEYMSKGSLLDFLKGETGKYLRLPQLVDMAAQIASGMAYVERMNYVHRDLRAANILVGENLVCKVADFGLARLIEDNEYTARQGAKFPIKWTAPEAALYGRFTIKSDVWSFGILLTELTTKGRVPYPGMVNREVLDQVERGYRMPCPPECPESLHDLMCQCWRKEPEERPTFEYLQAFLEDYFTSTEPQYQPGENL

SMILES | remaining activity at 1 µM (panel of 442 kinases [1]) [%] | remaining activity at 10 µM (panel of 442 kinases [1]; [9]) [%] | remaining activity at 1 µM (panel of 442 kinases [2]) [%] | remaining activity at 10 µM (panel of 442 kinases [2]; [9]) [%] | remaining activity at 1 µM (panel of 442 kinases [3]) [%] | remaining activity at 10 µM (panel of 442 kinases [3]; [9]) [%] | remaining activity at 1 µM (panel of 442 kinases [4]; ABL1(F317L)-nonphosphorylated) [%] | remaining activity at 10 µM (panel of 442 kinases [4]; ABL1(F317L)-nonphosphorylated) [%] | remaining activity at 1 µM (panel of 442 kinases [4]; ABL1(F317L)-phosphorylated) [%] | remaining activity at 10 µM (panel of 442 kinases [4]; ABL1(F317L)-phosphorylated) [%] | remaining activity at 1 µM (panel of 442 kinases [5]; [10]) [%] | remaining activity at 10 µM (panel of 442 kinases [5]; kinase RSK1(Kin.Dom.1-N-terminal), read-out: RSK1(Kin.Dom.1-N-terminal) (% of control at 10 µM)) [%] | remaining activity at 1 µM (panel of 442 kinases [5]; [11]) [%] | remaining activity at 10 µM (panel of 442 kinases [5]; kinase RSK1(Kin.Dom.2-C-terminal), read-out: RSK1(Kin.Dom.2-C-terminal) (% of control at 10 µM)) [%] | remaining activity at 1 µM (panel of 442 kinases [6]) [%] | remaining activity at 10 µM (panel of 442 kinases [6]; [9]) [%] | remaining activity at 1 µM (panel of 442 kinases [7]) [%] | remaining activity at 10 µM (panel of 442 kinases [7]; [9]) [%] | remaining activity at 1 µM (panel of 442 kinases [8]) [%] | remaining activity at 10 µM (panel of 442 kinases [8]; 10 µM, read-out: SRC (% of control at 10 µM)) [%]
Nc1cc(C(F)(F)F)c(-c2cc(N3CCOCC3)nc(N3CCOCC3)n2)cn1 [Buparlisib] | 100 | 100 | 81 | 98 | 89 | 76 | 100 | 100 | 100 | 100 | 100 | 100 | 97 | 98 | 99 | 92 | 73 | 100 | 94 | 100
Cn1c(=O)n(-c2ccc(C(C)(C)C#N)cc2)c2c3cc(-c4cnc5ccccc5c4)ccc3ncc21 [Dactolisib, 2-methyl-2-[4-(3-methyl-2-oxo-8-quinolin-3-yl-2,3-dihydroimidazo[4,5-c]quinolin-1-yl)-phenyl] propionitrile] | 72 |  | 100 |  | 26 |  | 100 |  | 100 |  | 77 |  | 61 |  | 100 |  | 56 |  | 94 | 
COc1ncc(-c2ccc3nccc(-c4ccnnc4)c3c2)cc1NS(=O)(=O)c1ccc(F)cc1F [Omipalisib] | 100 |  | 100 |  | 100 |  | 87 |  | 100 |  | 95 |  | 95 |  | 78 |  | 94 |  | 100 | 
FC(F)c1nc2ccccc2n1-c1nc(N2CCOCC2)nc(N2CCOCC2)n1 [ZSTK474, 2-(difluoromethyl)-1-[4,6-di(4-morpholinyl)-1,3,5-triazin-2-yl]-1H-benzimidazole] | 93 |  | 100 |  | 100 |  | 85 |  | 100 |  | 100 |  | 83 |  | 100 |  | 100 |  | 100 | 
